# Test results reported in patent US20180332878A1, “BITTER TASTE INHIBITOR” (NAGAOKA CO., LTD., priority 2017, published 2018).
# Tests used:
# Type in all cases: in vivo, human
# [1] = Sensory evaluation, summary of Table 1; conditions: added to a food or beverage having a bitter taste; without deteriorating the influence of the food or beverage itself
# Description: The beer (without addition of isobutyl angelate) was tasted by seven panelists (one twenty-something male, one thirty-something male, one forty-something male, one fifty-something male, one sixty-something male, and one twenty-something female and one thirty-something female). Subsequently, the seven panelists rinsed their mouths sufficiently, and then the beer having isobutyl angelate added thereto (with addition of isobutyl angelate) was tasted by the seven panelists. The panelists compared the isobutyl-angelate-free beer with the isobutyl-angelate-containing beer, and then determined whether or not the bitter taste in the isobutyl-angelate-containing beer was improved compared with the isobutyl-angelate-free beer in accordance with the following criteria. When the sum total of the scores determined by the seven panelists was 10 points or greater, it was determined that the bitter taste was improved.
# 1 point: although a bitter taste was sensed, the bitter taste was improved compared with the isobutyl-angelate-free beer; and
# 0 point: the bitter taste was not improved.
# [2] = Sensory evaluation, summary of Table 2; conditions: added to an amino acid having a bitter taste
# [3] = Sensory evaluation, summary of Table 3; conditions: added to an extract of a crude drug having a bitter taste
smiles,measurement,setting,value
"C/C=C(/C)C(=O)OCC(C)C [isobutyl angelate, Isobutyl angelate]",Effect on bitter taste (summary of Table 1),[1],the bitter taste is reduced
same,Effect on bitter taste (summary of Table 2),[2],the bitter taste derived from the amino acid is reduced
same,Effect on bitter taste (summary of Table 3),[3],a bitter taste derived from the crude drug is reduced
